Experimental findings from ChEMBL document CHEMBL4706585, “Novel 2-indolinone thiazole hybrids as sunitinib analogues: Design, synthesis, and potent VEGFR-2 inhibition with potential anti-renal cancer activity” (Eur J Med Chem, 2020) are described below.

In general, IC50 refers to the midpoint of a concentration-inhibition curve.

One assay relates to CAKI-1. As to the kind of experiment: Cytotoxicity against human CAKI-1 cells assessed as reduction in cell viability after 48 hrs by MTT assay. To be noted: CAKI-1, 48 h. Background: Tetrazolium dyes change colour on reduction, which living cells bring about.
With `O=C1CS/C(=N\N=C2/C(=O)N(Cc3ccccc3)c3ccc(Cl)cc32)N1`, the IC50 was 35.6 µM.
The same measure, in the same setting: with `CC(=O)c1s/c(=N\N=C2/C(=O)N(Cc3ccccc3)c3ccc(Cl)cc32)[nH]c1C` the figure was 12.8 µM; with `NC1=NNC(=O)/C1=C1/C(=O)N(Cc2ccccc2)c2ccc(Cl)cc21`, 0.82 µM.
Regarding `CCOC(=O)c1s/c(=N\N=C2/C(=O)N(Cc3ccccc3)c3ccc(Cl)cc32)[nH]c1C`, the IC50 came to 3.31 µM.
With `CCN(CC)CCNC(=O)c1c(C)[nH]c(/C=C2\C(=O)Nc3ccc(F)cc32)c1C` [SUNITINIB], the IC50 was 4.93 µM.
Turning to `O=C1/C(=N\N=c2\[nH]c(-c3ccc([N+](=O)[O-])cc3)cs2)c2cc(Cl)ccc2N1Cc1ccccc1`, the IC50 was found to be 5.78 µM.
Consider `CCOC(=O)/C(=N/Nc1ccc(C)cc1)S/C(N)=N\N=C1/C(=O)N(Cc2ccccc2)c2ccc(Cl)cc21`, for which the IC50 turned out to be 3.9 µM.

Test system in a further assay: not listed separately
In words: Cytotoxicity against human RPTEC/TERT1 cells assessed as reduction in cell viability after 48 hrs by MTT assay.
Details: not given
Take `CCOC(=O)c1s/c(=N\N=C2/C(=O)N(Cc3ccccc3)c3ccc(Cl)cc32)[nH]c1C`: the IC50 stood at 49.8 µM.
Turning to `CCN(CC)CCNC(=O)c1c(C)[nH]c(/C=C2\C(=O)Nc3ccc(F)cc32)c1C` [SUNITINIB], the IC50 is 16.9 µM.

Another assay relates to A498. As to the kind of experiment: Cytotoxicity against human A498 cells assessed as reduction in cell viability after 48 hrs by MTT assay. To be noted: A498, 48 h.
As to `O=C1CS/C(=N\N=C2/C(=O)N(Cc3ccccc3)c3ccc(Cl)cc32)N1`, the IC50 was determined as 3.45 µM.
Consider `CC(=O)c1s/c(=N\N=C2/C(=O)N(Cc3ccccc3)c3ccc(Cl)cc32)[nH]c1C`, for which the concentration for half-maximal inhibition (IC50) came out at 6.27 µM.
For `NC1=NNC(=O)/C1=C1/C(=O)N(Cc2ccccc2)c2ccc(Cl)cc21`, the concentration for half-maximal inhibition (IC50) was determined as 8.53 µM.
With `CCOC(=O)c1s/c(=N\N=C2/C(=O)N(Cc3ccccc3)c3ccc(Cl)cc32)[nH]c1C`, the 50% inhibitory concentration (IC50) worked out at 1.23 µM.
Regarding `CCN(CC)CCNC(=O)c1c(C)[nH]c(/C=C2\C(=O)Nc3ccc(F)cc32)c1C` [SUNITINIB], the IC50 came out at 1.25 µM.
Turning to `O=C1/C(=N\N=c2\[nH]c(-c3ccc([N+](=O)[O-])cc3)cs2)c2cc(Cl)ccc2N1Cc1ccccc1`, the IC50 turned out to be 24.7 µM.
Still for that read-out and setting: under `CCOC(=O)/C(=N/Nc1ccc(C)cc1)S/C(N)=N\N=C1/C(=O)N(Cc2ccccc2)c2ccc(Cl)cc21` stands 2.88 µM.
